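Exposure lasted 48 hours, with cells grown in 96-well plates and compounds tested at five concentrations. The concentration for full growth arrest is given as TGI.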
What was measured:
Assay in all cases: DTP human tumour cell line panel, 48 h
MALME-3M melanoma = tested on: MALME-3M melanoma
CCRF-CEM leukemia = tested on: CCRF-CEM leukemia
SN12C renal = tested on: SN12C renal
RPMI-8226 leukemia = tested on: RPMI-8226 leukemia
HCC-2998 colon = tested on: HCC-2998 colon
HCT-15 colon = tested on: HCT-15 colon
NCI-H226 lung = tested on: NCI-H226 lung
KM12 colon = tested on: KM12 colon
SK-MEL-5 melanoma = tested on: SK-MEL-5 melanoma
MOLT-4 leukemia = tested on: MOLT-4 leukemia
IGROV1 ovarian = tested on: IGROV1 ovarian
K-562 leukemia = tested on: K-562 leukemia
OVCAR-5 ovarian = tested on: OVCAR-5 ovarian
SNB-78 CNS = tested on: SNB-78 CNS
ACHN renal = tested on: ACHN renal
OVCAR-8 ovarian = tested on: OVCAR-8 ovarian
HT29 colon = tested on: HT29 colon
NCI-H522 lung = tested on: NCI-H522 lung
DLD-1 colon = tested on: DLD-1 colon
DMS 114 small cell lung = tested on: DMS 114 small cell lung
XF 498 CNS = tested on: XF 498 CNS
786-0 renal = tested on: 786-0 renal
TK-10 renal = tested on: TK-10 renal
SNB-75 CNS = tested on: SNB-75 CNS
UO-31 renal = tested on: UO-31 renal
SR leukemia = tested on: SR leukemia
U251 CNS = tested on: U251 CNS
SF-295 CNS = tested on: SF-295 CNS
HOP-62 NSCLC = tested on: HOP-62 NSCLC
NCI-H460 lung = tested on: NCI-H460 lung
OVCAR-3 ovarian = tested on: OVCAR-3 ovarian
RXF 393 renal = tested on: RXF 393 renal
UACC-257 melanoma = tested on: UACC-257 melanoma
SK-MEL-28 melanoma = tested on: SK-MEL-28 melanoma
A498 renal = tested on: A498 renal
LXFL 529 NSCLC = tested on: LXFL 529 NSCLC
COLO 205 colon = tested on: COLO 205 colon
SNB-19 CNS = tested on: SNB-19 CNS
M14 melanoma = tested on: M14 melanoma
A549 NSCLC = tested on: A549 NSCLC
EKVX NSCLC = tested on: EKVX NSCLC
SK-OV-3 ovarian = tested on: SK-OV-3 ovarian
SK-MEL-2 melanoma = tested on: SK-MEL-2 melanoma
OVCAR-4 ovarian = tested on: OVCAR-4 ovarian
UACC-62 melanoma = tested on: UACC-62 melanoma
HL-60(TB) leukemia = tested on: HL-60(TB) leukemia
SF-268 CNS = tested on: SF-268 CNS
SF-539 CNS = tested on: SF-539 CNS
M19-MEL melanoma = tested on: M19-MEL melanoma
SW-620 colon = tested on: SW-620 colon
NCI-H23 lung = tested on: NCI-H23 lung
DMS 273 small cell lung = tested on: DMS 273 small cell lung
LOX IMVI melanoma = tested on: LOX IMVI melanoma
HOP-92 NSCLC = tested on: HOP-92 NSCLC
HOP-18 NSCLC = tested on: HOP-18 NSCLC
CAKI-1 renal = tested on: CAKI-1 renal
KM20L2 colon = tested on: KM20L2 colon
HCT-116 colon = tested on: HCT-116 colon

Work on CCC(Oc1ccc(OC)c2c1C(=O)CCC2)C(=O)O (stereo not given) yielded a TGI (MALME-3M melanoma) of over 100 µM, a TGI (CCRF-CEM leukemia) of over 100 µM and a TGI (SN12C renal) of over 100 µM. It also gave a TGI (RPMI-8226 leukemia) of over 100 µM, a TGI (HCC-2998 colon) of over 100 µM and a TGI (HCT-15 colon) of over 100 µM. It also gave a TGI (NCI-H226 lung) of over 100 µM, a TGI (KM12 colon) of over 100 µM and a TGI (SK-MEL-5 melanoma) of over 100 µM. The TGI (MOLT-4 leukemia) was over 100 µM, the TGI (IGROV1 ovarian) was over 100 µM and the TGI (K-562 leukemia) was over 100 µM. The TGI (OVCAR-5 ovarian) was over 100 µM, the TGI (SNB-78 CNS) was over 100 µM and the TGI (ACHN renal) was over 100 µM. It also gave a TGI (OVCAR-8 ovarian) of over 100 µM, a TGI (HT29 colon) of over 100 µM and a TGI (NCI-H522 lung) of over 100 µM. For the same molecule, the TGI (DLD-1 colon) was over 100 µM, the TGI (DMS 114 small cell lung) was over 100 µM and the TGI (XF 498 CNS) was over 100 µM. For the same molecule, the TGI (786-0 renal) was over 100 µM, the TGI (TK-10 renal) was over 100 µM and the TGI (SNB-75 CNS) was over 100 µM. The TGI (UO-31 renal) was over 100 µM, the TGI (SR leukemia) was over 100 µM and the TGI (U251 CNS) was over 100 µM. The TGI (SF-295 CNS) was over 100 µM, the TGI (HOP-62 NSCLC) was over 100 µM and the TGI (NCI-H460 lung) was over 100 µM. The TGI (OVCAR-3 ovarian) was over 100 µM, the TGI (RXF 393 renal) was over 100 µM and the TGI (UACC-257 melanoma) was over 100 µM. The TGI (SK-MEL-28 melanoma) was over 100 µM, the TGI (A498 renal) was over 100 µM and the TGI (LXFL 529 NSCLC) was over 100 µM. For the same molecule, the TGI (COLO 205 colon) was over 100 µM, the TGI (SNB-19 CNS) was over 100 µM and the TGI (M14 melanoma) was over 100 µM. For the same molecule, the TGI (A549 NSCLC) was over 100 µM, the TGI (EKVX NSCLC) was over 100 µM and the TGI (SK-OV-3 ovarian) was over 100 µM. It also gave a TGI (SK-MEL-2 melanoma) of over 100 µM, a TGI (OVCAR-4 ovarian) of over 100 µM and a TGI (UACC-62 melanoma) of over 100 µM. For the same molecule, the TGI (HL-60(TB) leukemia) was over 100 µM, the TGI (SF-268 CNS) was over 100 µM and the TGI (SF-539 CNS) was over 100 µM. For the same molecule, the TGI (M19-MEL melanoma) was over 100 µM, the TGI (SW-620 colon) was over 100 µM and the TGI (NCI-H23 lung) was over 100 µM. It also gave a TGI (DMS 273 small cell lung) of over 100 µM and a TGI (LOX IMVI melanoma) of over 100 µM.

In the case of N#CC(C(=O)Nc1ccccc1)C1=C(Cl)C(=O)c2ccccc2C1=O (stereo not given), the TGI (MALME-3M melanoma) is reported as 26.7 µM, the TGI (CCRF-CEM leukemia) is reported as over 100 µM and the TGI (SN12C renal) is reported as 29.1 µM. For the same molecule, the TGI (HCC-2998 colon) was 45.9 µM, the TGI (HCT-15 colon) was 32.6 µM and the TGI (NCI-H226 lung) was 30.8 µM. For the same molecule, the TGI (KM12 colon) was 50.7 µM, the TGI (SK-MEL-5 melanoma) was 30.2 µM and the TGI (IGROV1 ovarian) was 34.8 µM. The TGI (K-562 leukemia) was 52.5 µM, the TGI (OVCAR-5 ovarian) was 32.2 µM and the TGI (SNB-78 CNS) was 45.9 µM. It also gave a TGI (HOP-92 NSCLC) of 27.9 µM, a TGI (OVCAR-8 ovarian) of 46.1 µM and a TGI (HT29 colon) of 67.5 µM. It also gave a TGI (NCI-H522 lung) of 29.3 µM, a TGI (DLD-1 colon) of 40.2 µM and a TGI (DMS 114 small cell lung) of 41.7 µM. For the same molecule, the TGI (XF 498 CNS) was 30.3 µM, the TGI (786-0 renal) was 27.7 µM and the TGI (TK-10 renal) was 36.7 µM. For the same molecule, the TGI (UO-31 renal) was 26.9 µM, the TGI (HOP-18 NSCLC) was 22.7 µM and the TGI (U251 CNS) was 61.5 µM. For the same molecule, the TGI (CAKI-1 renal) was 41.2 µM, the TGI (KM20L2 colon) was 48.9 µM and the TGI (HCT-116 colon) was 27.3 µM. The TGI (SF-295 CNS) was 36.5 µM, the TGI (HOP-62 NSCLC) was 33.6 µM and the TGI (NCI-H460 lung) was over 100 µM. The TGI (OVCAR-3 ovarian) was 34.5 µM, the TGI (RXF 393 renal) was 31.4 µM and the TGI (UACC-257 melanoma) was 12.8 µM. For the same molecule, the TGI (SK-MEL-28 melanoma) was 32.1 µM, the TGI (A498 renal) was over 100 µM and the TGI (LXFL 529 NSCLC) was 35.5 µM. The TGI (COLO 205 colon) was 37.3 µM, the TGI (SNB-19 CNS) was 36.3 µM and the TGI (M14 melanoma) was 30.3 µM. For the same molecule, the TGI (A549 NSCLC) was 43.4 µM, the TGI (EKVX NSCLC) was 35.1 µM and the TGI (SK-OV-3 ovarian) was over 100 µM. It also gave a TGI (SK-MEL-2 melanoma) of 32.7 µM, a TGI (OVCAR-4 ovarian) of 31 µM and a TGI (UACC-62 melanoma) of 33.3 µM. The TGI (HL-60(TB) leukemia) was 20.5 µM, the TGI (SF-268 CNS) was 31 µM and the TGI (SF-539 CNS) was 28.8 µM. For the same molecule, the TGI (M19-MEL melanoma) was 21.8 µM, the TGI (SW-620 colon) was 50 µM and the TGI (NCI-H23 lung) was 36.5 µM. It also gave a TGI (LOX IMVI melanoma) of 29.8 µM.

Reference: PubChem BioAssay (NCI)
